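Tested at 5 concentrations; 48 h exposure; 96-well plates; endpoints linearly interpolated, else capped at highest concentration. Definition used: TGI = concentration required for complete inhibition of growth.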 The source made the active and inactive calls. Rule as the data show it: active = GI50 below about 0.43 µM; inactive = the rest.
What was measured:
Test in all cases: DTP human tumour cell line panel, 48 h
[1] = system: DU-145 prostate
[2] = system: LOX IMVI melanoma
[3] = system: NCI/ADR-RES ovarian
[4] = system: BT-549 breast
[5] = system: SF-539 CNS
[6] = system: IGROV1 ovarian
[7] = system: SK-OV-3 ovarian
[8] = system: OVCAR-8 ovarian
[9] = system: SK-MEL-2 melanoma
[10] = system: HOP-62 NSCLC
[11] = system: SK-MEL-28 melanoma
[12] = system: A498 renal
[13] = system: MALME-3M melanoma
[14] = system: OVCAR-5 ovarian
[15] = system: MDA-MB-435
[16] = system: CCRF-CEM leukemia
[17] = system: NCI-H460 lung
[18] = system: HOP-92 NSCLC
[19] = system: UO-31 renal
[20] = system: NCI-H23 lung
[21] = system: UACC-62 melanoma
[22] = system: PC-3 prostate
[23] = system: COLO 205 colon
[24] = system: EKVX NSCLC
[25] = system: ACHN renal
[26] = system: M14 melanoma
[27] = system: MOLT-4 leukemia
[28] = system: SN12C renal
[29] = system: 786-0 renal
[30] = system: OVCAR-3 ovarian
[31] = system: HS 578T breast
[32] = system: SF-295 CNS
[33] = system: SK-MEL-5 melanoma
[34] = system: SR leukemia
[35] = system: HT29 colon
[36] = system: RXF 393 renal
[37] = system: TK-10 renal
[38] = system: NCI-H226 lung
[39] = system: K-562 leukemia
[40] = system: KM12 colon
[41] = system: U251 CNS
[42] = system: SNB-19 CNS
[43] = system: HCT-15 colon
[44] = system: T-47D breast
[45] = system: NCI-H522 lung
[46] = system: UACC-257 melanoma
[47] = system: SF-268 CNS
[48] = system: RPMI-8226 leukemia
[49] = system: CAKI-1 renal
[50] = system: MCF7 breast
[51] = system: MDA-N
[52] = system: HCC-2998 colon
[53] = system: OVCAR-4 ovarian
[54] = system: A549 NSCLC
[55] = system: HL-60(TB) leukemia
[56] = system: SNB-75 CNS
[57] = system: SW-620 colon
[58] = system: HCT-116 colon
[59] = system: MDA-MB-231 breast

SMILES: CC(C)=CCC/C(C)=C/CC/C(C)=C/CCN(C)CCO
- TGI [1]: 25.9 µM
- TGI [2]: 14.3 µM
- TGI [3]: 26.7 µM
- TGI [4]: 26.3 µM
- TGI [5]: 14.8 µM
- TGI [6]: 8.34 µM
- TGI [7]: 29.6 µM
- TGI [8]: 27.3 µM
- TGI [9]: 28.1 µM
- TGI [10]: 19.6 µM
- TGI [11]: 25.1 µM
- TGI [12]: 29.3 µM
- TGI [13]: 8.33 µM
- TGI [14]: 21.1 µM
- TGI [15]: 17.4 µM
- TGI [16]: 8.65 µM
- TGI [17]: 14.5 µM
- TGI [18]: 9.9 µM
- TGI [19]: 25.3 µM
- TGI [20]: 27.6 µM
- TGI [21]: 27.1 µM
- TGI [22]: 18.2 µM
- TGI [23]: 3.25 µM
- TGI [24]: 32.3 µM
- TGI [25]: 23.9 µM
- TGI [26]: 3.81 µM
- TGI [27]: 11.1 µM
- TGI [28]: 25.5 µM
- TGI [29]: 4.83 µM
- TGI [30]: 28.9 µM
- TGI [31]: 6.57 µM
- TGI [32]: 12.1 µM
- TGI [33]: 3.44 µM
- TGI [34]: 21.4 µM
- TGI [35]: 23.3 µM
- TGI [36]: 24.9 µM
- TGI [37]: 19.4 µM
- TGI [38]: 38.7 µM
- TGI [39]: 3.24 µM
- TGI [40]: 7.77 µM
- TGI [41]: 12.7 µM
- TGI [42]: 22.8 µM
- TGI [43]: 13.7 µM
- TGI [44]: 7.4 µM
- TGI [45]: 16.5 µM
- TGI [46]: 21.7 µM
- TGI [47]: 27 µM
- TGI [48]: 11 µM
- TGI [49]: 19.2 µM
- TGI [50]: 7.13 µM
- TGI [51]: 14.3 µM
- TGI [52]: 4.38 µM
- TGI [53]: 29.1 µM
- TGI [54]: 23.3 µM
- TGI [55]: 3.68 µM
- TGI [56]: 21 µM
- TGI [57]: 18.4 µM
- TGI [58]: 16.3 µM
- TGI [59]: 23.9 µM

SMILES: COc1ccc(N2C(=O)CC(=O)N(C(=O)CCCCCCCCC(=O)N3C(=O)CC(=O)N(c4ccc(OC)cc4)C3=S)C2=S)cc1
- TGI [1]: > 100 µM
- TGI [2]: > 100 µM
- TGI [3]: > 100 µM
- TGI [4]: > 100 µM
- TGI [5]: > 100 µM
- TGI [7]: > 100 µM
- TGI [8]: > 100 µM
- TGI [9]: > 100 µM
- TGI [10]: > 100 µM
- TGI [11]: > 100 µM
- TGI [12]: > 100 µM
- TGI [13]: > 100 µM
- TGI [14]: > 100 µM
- TGI [15]: > 100 µM
- TGI [16]: > 100 µM
- TGI [17]: > 100 µM
- TGI [18]: > 100 µM
- TGI [19]: > 100 µM
- TGI [20]: > 100 µM
- TGI [21]: > 100 µM
- TGI [22]: > 100 µM
- TGI [23]: > 100 µM
- TGI [24]: > 100 µM
- TGI [25]: > 100 µM
- TGI [26]: > 100 µM
- TGI [27]: > 100 µM
- TGI [28]: > 100 µM
- TGI [29]: > 100 µM
- TGI [30]: > 100 µM
- TGI [31]: > 100 µM
- TGI [32]: > 100 µM
- TGI [33]: > 100 µM
- TGI [34]: > 100 µM
- TGI [35]: > 100 µM
- TGI [36]: > 100 µM
- TGI [37]: > 100 µM
- TGI [38]: > 100 µM
- TGI [39]: > 100 µM
- TGI [40]: > 100 µM
- TGI [41]: > 100 µM
- TGI [42]: > 100 µM
- TGI [43]: > 100 µM
- TGI [44]: > 100 µM
- TGI [45]: > 100 µM
- TGI [46]: > 100 µM
- TGI [47]: > 100 µM
- TGI [48]: > 100 µM
- TGI [49]: > 100 µM
- TGI [50]: > 100 µM
- TGI [51]: > 100 µM
- TGI [52]: > 100 µM
- TGI [53]: > 100 µM
- TGI [54]: > 100 µM
- TGI [55]: > 100 µM
- TGI [56]: > 100 µM
- TGI [57]: > 100 µM
- TGI [58]: > 100 µM
- TGI [59]: > 100 µM

SMILES: O=c1cc(-c2ccc(O)c(O)c2-c2c(O)cc3oc(-c4ccc(O)c(O)c4)cc(=O)c3c2O)oc2cc(O)cc(O)c12
- outcome [1]: inactive
- outcome [2]: inactive
- outcome [3]: inactive
- outcome [4]: inactive
- outcome [5]: inactive
- outcome [6]: inactive
- outcome [7]: inactive
- outcome [8]: inactive
- outcome [9]: inactive
- outcome [10]: inactive
- outcome [11]: inactive
- outcome [12]: inactive
- outcome [13]: inactive
- outcome [14]: inactive
- outcome [15]: inactive
- outcome [16]: inactive
- outcome [18]: inactive
- outcome [19]: inactive
- outcome [20]: inactive
- outcome [21]: inactive
- outcome [22]: inactive
- outcome [23]: inactive
- outcome [24]: inactive
- outcome [25]: inactive
- outcome [26]: inactive
- outcome [28]: inactive
- outcome [29]: inactive
- outcome [30]: inactive
- outcome [31]: inactive
- outcome [32]: inactive
- outcome [33]: inactive
- outcome [34]: inactive
- outcome [35]: inactive
- outcome [36]: inactive
- outcome [37]: inactive
- outcome [38]: inactive
- outcome [39]: inactive
- outcome [40]: inactive
- outcome [41]: inactive
- outcome [42]: inactive
- outcome [43]: inactive
- outcome [44]: inactive
- outcome [45]: inactive
- outcome [46]: inactive
- outcome [47]: inactive
- outcome [48]: inactive
- outcome [49]: inactive
- outcome [50]: inactive
- outcome [51]: inactive
- outcome [52]: inactive
- outcome [53]: inactive
- outcome [54]: inactive
- outcome [55]: inactive
- outcome [56]: inactive
- outcome [57]: inactive
- outcome [58]: inactive
- outcome [59]: inactive

SMILES: O=C(c1ccc(Cl)c(Cl)c1)N(Cc1cccnc1)C(=S)N(Cc1cccnc1)C(=O)c1ccc(Cl)c(Cl)c1
- TGI [1]: > 100 µM
- TGI [2]: > 100 µM
- TGI [3]: > 100 µM
- TGI [4]: 65.8 µM
- TGI [5]: 45.5 µM
- TGI [7]: > 100 µM
- TGI [8]: 84.5 µM
- TGI [9]: 95.7 µM
- TGI [10]: 83.6 µM
- TGI [11]: > 100 µM
- TGI [12]: 79.4 µM
- TGI [13]: > 100 µM
- TGI [14]: 71.7 µM
- TGI [15]: > 100 µM
- TGI [16]: > 100 µM
- TGI [17]: > 100 µM
- TGI [18]: > 100 µM
- TGI [19]: 33.2 µM
- TGI [20]: > 100 µM
- TGI [21]: > 100 µM
- TGI [22]: 83.4 µM
- TGI [23]: 32.2 µM
- TGI [24]: > 100 µM
- TGI [25]: 36.2 µM
- TGI [26]: 52.9 µM
- TGI [27]: > 100 µM
- TGI [28]: 52.2 µM
- TGI [29]: 54.2 µM
- TGI [30]: 78.3 µM
- TGI [31]: > 100 µM
- TGI [32]: 67.1 µM
- TGI [33]: 75.7 µM
- TGI [34]: > 100 µM
- TGI [35]: 65.1 µM
- TGI [36]: 79.6 µM
- TGI [37]: 79.8 µM
- TGI [38]: > 100 µM
- TGI [39]: > 100 µM
- TGI [40]: > 100 µM
- TGI [41]: > 100 µM
- TGI [42]: 88.4 µM
- TGI [43]: 64.2 µM
- TGI [44]: > 100 µM
- TGI [45]: 41.9 µM
- TGI [46]: 91.5 µM
- TGI [47]: > 100 µM
- TGI [48]: > 100 µM
- TGI [49]: > 100 µM
- TGI [50]: > 100 µM
- TGI [51]: > 100 µM
- TGI [52]: 39.8 µM
- TGI [53]: > 100 µM
- TGI [54]: > 100 µM
- TGI [55]: > 100 µM
- TGI [56]: > 100 µM
- TGI [57]: > 100 µM
- TGI [58]: 63.4 µM
- TGI [59]: 99.1 µM

From PubChem BioAssay (NCI)
